From PubChem BioAssay (NCI)
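Where inhibition never reached the appropriate level, the endpoint shown equals the highest concentration tested. Otherwise, values were interpolated linearly from a five-concentration, 48-hour dose response in 96-well plates. Here, GI50 denotes the concentration required for 50% inhibition of growth. At the TGI there is no net growth.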

Tests used:
Assay in all cases: NCI-60 cell line screen, 48 h
[1] = tested on: 786-0 renal
[2] = tested on: A498 renal
[3] = tested on: HOP-92 NSCLC
[4] = tested on: K-562 leukemia
[5] = tested on: MCF7 breast
[6] = tested on: NCI-H460 lung
[7] = tested on: OVCAR-8 ovarian
[8] = tested on: SNB-75 CNS
[9] = tested on: SR leukemia
[10] = tested on: U251 CNS

| SMILES | GI50 [1] [µM] | TGI [1] [µM] | GI50 [2] [µM] | TGI [2] [µM] | GI50 [3] [µM] | TGI [3] [µM] | GI50 [4] [µM] | TGI [4] [µM] | GI50 [5] [µM] | TGI [5] [µM] | GI50 [6] [µM] | TGI [6] [µM] | GI50 [7] [µM] | TGI [7] [µM] | GI50 [8] [µM] | TGI [8] [µM] | GI50 [9] [µM] | TGI [9] [µM] | GI50 [10] [µM] | TGI [10] [µM] |
| --- | --- | --- | --- | --- | --- | --- | --- | --- | --- | --- | --- | --- | --- | --- | --- | --- | --- | --- | --- | --- |
| C=C1CC[C@@H](C(C)C)C[C@@H]2[C@H]([C@H](O)C[C@]2(C)O)[C@@]2(C)CC[C@@H]1O2 | 18.8 | 33.4 | 26 | 42.9 | 6.84 | 20.7 | 15.8 | 29.2 | 16.2 | 29.7 | 16.4 | 29.9 | 21.4 | 46.4 | 17 | 38.9 | 14.2 | 30.9 | 16.9 | 30.5 |
| CC(C)C1=C2CCC3(C)C(CCC4C5C6OCC5(CCC6(C)C)CCC43C)C2(C)CC1 (stereo not drawn) | – | 33.7 | – | 36.7 | – | 40.8 | – | – | – | 47.7 | – | 31.8 | – | 34.4 | – | – | – | 30.6 | – | 37 |
| COC(=O)CCC1=C(CC(=O)OC)C(C)=N/C1=C\c1[nH]c(-c2ccc[nH]2)cc1OC | 2.73 | 10.2 | 10.6 | 23.9 | 1.83 | 5.9 | 2.7 | 12.5 | 2.38 | 13.5 | 3.72 | 13.7 | 2.92 | 11.4 | 4.9 | 19.1 | 1.71 | 7.7 | 2.48 | 12.6 |
| CCCCCCCCCCN1CCC(N2CCCCC2)CC1 | 2.82 | 15.9 | 9.27 | 21.7 | 0.763 | 8.5 | 1.28 | 3.44 | 1.54 | 3.64 | 2.99 | 8.03 | 3.81 | 14 | 2.06 | 6.12 | 0.627 | 2.98 | 1.51 | 4.47 |
